# Reference: PMC9078504, “Antiacetylcholinesterase triterpenes from the fruits of Cimicifuga yunnanensis” (RSC Advances, 2018)
# Target: T1, acetylcholinesterase (AChE) (Homo sapiens, UniProt P22303)
# T1 construct: derived from human erythrocytes (Sigma)
# Experiment: Ellman spectrophotometric assay, acetylthiocholine hydrolysis at […] nm
# Format: biochemical
# T1 sequence (P22303 32-614): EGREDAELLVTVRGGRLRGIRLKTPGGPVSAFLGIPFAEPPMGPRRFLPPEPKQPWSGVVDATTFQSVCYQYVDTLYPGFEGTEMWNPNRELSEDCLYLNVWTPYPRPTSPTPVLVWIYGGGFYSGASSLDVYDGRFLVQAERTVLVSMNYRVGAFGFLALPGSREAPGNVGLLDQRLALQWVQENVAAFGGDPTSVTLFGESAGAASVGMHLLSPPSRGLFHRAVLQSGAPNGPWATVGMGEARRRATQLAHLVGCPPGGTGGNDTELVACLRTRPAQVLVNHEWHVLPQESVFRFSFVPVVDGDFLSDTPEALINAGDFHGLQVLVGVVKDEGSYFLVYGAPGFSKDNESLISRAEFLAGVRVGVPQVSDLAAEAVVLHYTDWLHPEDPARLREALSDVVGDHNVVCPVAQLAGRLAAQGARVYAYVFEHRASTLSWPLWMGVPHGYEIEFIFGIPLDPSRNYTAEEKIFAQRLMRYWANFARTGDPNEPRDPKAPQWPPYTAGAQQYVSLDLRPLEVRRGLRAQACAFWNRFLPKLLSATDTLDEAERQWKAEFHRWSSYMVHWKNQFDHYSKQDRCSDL
row,SMILES,IC50
1,"Cc1cc(C=O)nc2c1[C@@]1(C)C[C@H](O)[C@@]34C[C@@]35CC[C@H](O[C@@H]3OC[C@H](O)[C@H](O)[C@H]3O)C(C)(C)[C@@H]5CC=C4[C@]1(C)C2 [compound 2, (3β,11β)-11-Hydroxy-16,23-nitrilo-7,17(20),22-trien-24-formyl-25,26,27-trinor-9,19-cycloart-3-O-α-larabinopyranoside]",3870 nM
2,"CC(=O)O[C@@H]1C[C@@]23C[C@@]24CC[C@H](O[C@@H]2OC[C@H](O)[C@H](O)[C@H]2O)C(C)(C)[C@@H]4CC=C3[C@]2(C)C(=O)C(=O)[C@@]3(O[C@@H]([C@H](O)C(C)(C)O)C[C@H]3C)[C@@]12C [compound 1, (3β,12β,17S,20R,23R,24S)-17,23-Epoxy-15,16-dione-12-acetoxy-3,25-dihydroxy-7-en-9,19-cycloart-3-O-α-larabinopyranoside]",1580 nM
